A word on the EC50: it is the concentration needed to bring the measured effect to its halfway point. A lower EC50 goes with an effect from little substance.

Molecules are shown by their SMILES.

For the assay, the target named is T1, human-liver type GST-GK (Homo sapiens, UniProt P35557).
T1 construct: made in house; host or cells: E. coli
T1 sequence (P35557 1-466 isoform P35557-2): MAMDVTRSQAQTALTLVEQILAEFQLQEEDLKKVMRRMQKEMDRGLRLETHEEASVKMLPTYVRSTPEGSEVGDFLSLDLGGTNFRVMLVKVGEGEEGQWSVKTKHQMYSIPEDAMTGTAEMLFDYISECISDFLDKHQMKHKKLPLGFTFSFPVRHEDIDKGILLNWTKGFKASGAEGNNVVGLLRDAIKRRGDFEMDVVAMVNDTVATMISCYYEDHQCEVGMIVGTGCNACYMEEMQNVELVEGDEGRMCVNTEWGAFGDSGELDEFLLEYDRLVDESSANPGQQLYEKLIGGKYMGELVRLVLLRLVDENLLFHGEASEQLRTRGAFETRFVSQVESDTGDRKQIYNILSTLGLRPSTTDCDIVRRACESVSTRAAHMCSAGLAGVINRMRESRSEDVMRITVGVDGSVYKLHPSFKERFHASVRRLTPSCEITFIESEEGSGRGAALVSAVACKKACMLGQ
Description: Glucokinase activation effect (G6PDH-coupled NADPH assay). The assay is classed as biochemical. The note with it: 5 mM glucose, 5 mM ATP, 30° C., absorbance 340 nm for 15 minutes, 5% DMSO. On the procedure: A glucokinase activity was examined by measuring the amount of NADPH obtained in generating 6-phosphogluconic acid from glucose-6-phosphoric acid by a coupling enzyme glucose-6-phosphate dehydrogenase not by measuring directly the produced glucose-6-phosphoric acid. The glucokinase enzyme used in the examination is human-liver type GST-GK expressed in E. Coli. The measurement of GK activity was carried out by the following procedures.
Twenty five mM HEPES buffer (pH7.4) containing 25 mM MgCl2, […], 1 mM DTT, 5 mM NADP (Roche), 16.64 μg/mL G6PDH (Roche 737-232 grade II from yeast) and 2.8 μg/mL GST-GK was prepared as a reaction solution. An evaluating compound dissolved in DMSO was added to the reaction solution to give final concentration of 0.001 to 100 μM (5% DMSO). Thereto was added glucose (final concentration of 5 mM) as a substrate and was added ATP (final concentration of 5 mM), and the reaction was started. The reaction temperature is 30° C. and a generation of NADPH was monitored by changes of absorbance of 340 nm. An increasing in absorbance for 15 minutes from starting reaction was measured and the blank-corrected value was used as GK activity (mOD/min). EC50 level was calculated by a GK activity level in at each concentration of an evaluating compound.
In the case of `O=C1CN(Cc2cnc(NC(=O)/C(=N/O[C@@H]3CCOC3)c3ccc(S(=O)(=O)C4CC4)cc3)s2)CCN1` [Example 6], the midpoint of the response, the EC50, lay at 1200 nM.
Under `CC(=O)N1CCN(Cc2cnc(NC(=O)/C(=N/O[C@@H]3CCOC3)c3ccc(S(=O)(=O)C4CC4)cc3)s2)C[C@@H]1C` [Example 9] stands 550 nM; under `CC(=O)N1CCN(Cc2cnc(NC(=O)/C(=N/O[C@@H]3CCOC3)c3ccc(S(=O)(=O)C4CC4)cc3)s2)CC1` [Example 10], 790 nM; under `COCC(=O)N1[C@H](C)CN(Cc2cnc(NC(=O)/C(=N/O[C@@H]3CCOC3)c3ccc(S(=O)(=O)C4CC4)cc3)s2)C[C@@H]1C` [Example 11], 880 nM.
For the molecule `CN(C)CCOc1ccc2nc(NC(=O)/C(=N/O[C@@H]3CCOC3)c3ccc(S(=O)(=O)C4CC4)cc3)sc2n1` [Example 13-3], the 50% effective concentration (EC50) was determined as 170 nM.
Under `O=C(Nc1ncc(CN2CCOCC2)s1)/C(=N/O[C@@H]1CCOC1)c1ccc(S(=O)(=O)C2CC2)cc1` [Example 18-2] stands 930 nM.
As for `COc1ccc2nc(NC(=O)/C(=N/O[C@@H]3CCOC3)c3ccc(S(=O)(=O)C4CC4)cc3)sc2n1` [Example 24-25], the figure is 84 nM; as for `O=C(O)CCSc1cnc(NC(=O)/C(=N/O[C@@H]2CCOC2)c2ccc(S(=O)(=O)C3CC3)cc2)s1` [Example 46-1], 100 nM.
As for `CC(=O)N1CCC(OCc2cnc(NC(=O)/C(=N/O[C@@H]3CCOC3)c3ccc(S(=O)(=O)C4CC4)cc3)s2)CC1` [Example 56], the midpoint of the response, the EC50, lay at 320 nM. This EC50 is about 3.2-fold higher than that of the molecule before.
Under `O=C(Nc1ncc(F)s1)/C(=N/OCc1ncccn1)c1ccc(S(=O)(=O)C2CC2)cc1` [Example 62-5] stands 410 nM; under `Cn1ccc(CO/N=C(/C(=O)Nc2ncc(F)s2)c2ccc(S(=O)(=O)C3CC3)cc2)n1` [Example 62-10], 270 nM.
With `O=C(Nc1ncc(F)s1)/C(=N/OCCCO)c1ccc(S(=O)(=O)C2CC2)cc1` [Example 67-2], the response was half-maximal at 390 nM (EC50).
In turn, `O=C(Nc1ncc(F)s1)/C(=N/O[C@@H]1CCOC1)c1ccc(S(=O)(=O)N2CCCOCC2)cc1` [Example 82-22] had an EC50 of 260 nM.
Under `O=C(Nc1ncc(F)s1)/C(=N/O[C@@H]1CCOC1)c1ccc(S(=O)(=O)NCCF)cc1` [Example 82-78] stands 600 nM.
As for `Cn1ccnc1CS(=O)(=O)c1ccc(/C(=N\O[C@@H]2CCOC2)C(=O)Nc2ncc(F)s2)cc1` [Example 84-12], the figure is 410 nM.
As for `CS(=O)(=O)c1ccc(/C(=N\OC2CCCC2)C(=O)Nc2ncc(C(N)=O)s2)cc1` [Example 91-8], the figure is 520 nM; as for `O=C(Nc1nccs1)/C(=N/OCc1ccccn1)c1ccc(S(=O)(=O)C2CC2)cc1` [Example 94-6], 510 nM; as for `COCCCS(=O)(=O)c1ccc(/C(=N\O[C@@H]2CCOC2)C(=O)Nc2ncc(COC)s2)cc1` [Example 98-1], 840 nM.
In turn, `COCCCS(=O)(=O)c1ccc(/C(=N\O[C@@H]2CCOC2)C(=O)Nc2nc3ccc(OCCO)nc3s2)cc1` [Example 98-7] displayed an EC50 of 230 nM. This EC50 is about 3.7-fold lower than that of the molecule before.
Under `C[C@@H](CO)O/N=C(/C(=O)Nc1ncc(Cl)s1)c1ccc(S(=O)(=O)C2CC2)cc1` [Example 104-2] stands 300 nM; under `Cc1nsc(NC(=O)/C(=N/O[C@@H]2CC[C@@H](O)C2)c2ccc(S(=O)(=O)C3CC3)cc2)n1` [Example 116], 570 nM.
As for `COc1cnc(NC(=O)/C(=N/O[C@@H]2CC[C@@H](OC)C2)c2ccc(S(=O)(=O)C3CC3)cc2)cn1` [Example 139-41], the figure is 540 nM; as for `CCN(CCO)S(=O)(=O)c1ccc(/C(=N\O[C@@H]2CCOC2)C(=O)Nc2cnc(C3CC3)cn2)cc1` [Example 139-94], 350 nM.
Under `COCCN(C)S(=O)(=O)c1ccc(/C(=N\O[C@@H]2CCOC2)C(=O)Nc2ncc(CN3CCN(C)CC3)s2)cc1` [Example 139-125] stands 760 nM; under `COCCCS(=O)(=O)c1ccc(/C(=N\OCc2ncccn2)C(=O)Nc2nc3ccc(OC)nc3s2)cc1` [Example 139-134], 180 nM; under `COCCCS(=O)(=O)c1ccc(/C(=N\OC2CCCC2)C(=O)Nc2ccc(C(N)=O)cn2)cc1` [Example 139-159], 520 nM.
For the molecule `COCCCS(=O)(=O)c1ccc(/C(=N\O[C@@H]2CC[C@@H](O)C2)C(=O)Nc2ncc(C)s2)cc1` [Example 139-182], a half-maximal effect (EC50) was put at 520 nM.
Under `COCCCS(=O)(=O)c1ccc(/C(=N\O[C@@H]2CCOC2)C(=O)Nc2nc3ccc(OCCO)cc3s2)cc1` [Example 139-214] stands 570 nM.
As for `CNc1ccc2nc(NC(=O)/C(=N/O[C@@H]3CCOC3)c3ccc(S(=O)(=O)CCCOC)cc3)sc2n1` [Example 139-221], the figure is 130 nM.
`CC(=O)N1CCN(Cc2cnc(NC(=O)/C(=N/O[C@@H]3CCOC3)c3ccc(S(=O)(=O)[C@H]4CCOC4)cc3)s2)C[C@H]1C` [Example 139-237] showed an EC50 of 600 nM.
Under `CNCCOc1ccc2nc(NC(=O)/C(=N/O[C@@H]3CCOC3)c3ccc(S(=O)(=O)NCCO)cc3)sc2n1` [Example 139-244] stands 460 nM.

Values taken from US8119626B2, “Oxime derivative and preparations thereof” (Mitsubishi Tanabe Pharma Corporation, priority 2005, dated 2012).
